Drawing on publication PMC5127787 (Frontiers in Microbiology, 2016), this text covers IC50 for one molecule.

The experiment addresses RecA (Escherichia coli, UniProt P0A7G6). In words: biochemical.

Sequence of RecA (P0A7G6 2-353): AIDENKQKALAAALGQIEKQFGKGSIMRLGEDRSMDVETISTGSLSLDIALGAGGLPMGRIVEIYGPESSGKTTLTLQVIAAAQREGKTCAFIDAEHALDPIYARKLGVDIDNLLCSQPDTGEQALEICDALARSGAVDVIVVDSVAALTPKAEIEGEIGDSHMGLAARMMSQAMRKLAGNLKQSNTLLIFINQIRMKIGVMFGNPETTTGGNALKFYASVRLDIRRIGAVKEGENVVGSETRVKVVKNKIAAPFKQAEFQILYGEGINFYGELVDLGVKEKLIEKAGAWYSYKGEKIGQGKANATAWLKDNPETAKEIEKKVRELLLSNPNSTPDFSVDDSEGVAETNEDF

Consider `CN1CCN(c2ccc(N3C(=O)C=CC3=O)cc2)CC1` [AHU3], for which half-maximal inhibition (IC50) required 7.72 µM.
